Laboratory results from PubChem BioAssay AID1963449 (Molecular Pharmacology Branch, DTP, NCI, 2024).

System: 596521-263-R-J1-PDC complex spheroid growth
Assay: Anticancer human tumor 596521-263-R-J1-PDC patient-derived soft tissue sarcoma cell line growth inhibition [Asc]
Details: for IC50: curve of first compound; for viability, T/C: stronger effect = lower value
How it was run: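 Tumor cells were grown as multicellular spheroids with stromal HUVEC and mesenchymal stem cells and treated singly or in combination. Concentrations fell in half-log steps from the clinical Cmax, or from 10 microM where none was known.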
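Further: spheroids exposed to compounds for 7 days.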

## CNC(C)C(=O)NC1CN(S(=O)(=O)c2cccc(S(=O)(=O)N3CCC4CCC(C(=O)NC(c5ccccc5)c5ccccc5)N4C(=O)C(NC(=O)C(C)NC)C3)c2)CCC2CCC(C(=O)NC(c3ccccc3)c3ccccc3)N2C1=O (centres undefined) + Cc1c(S(C)(=O)=O)c(-c2cc(F)cc(N3CCN(c4ccc(NS(=O)(=O)c5ccc(NC(CCN6CCC(C(=O)OCCCP(=O)(O)O)CC6)CSc6ccccc6)c(S(=O)(=O)C(F)(F)F)c5)cc4)CC3)c2)c(-c2ccc(Cl)cc2)n1C(C)C
Second compound 0.0316 µM
  IC50: > 1000 nM
Second compound 0.1 µM
  IC50: > 1000 nM
Second compound 0.316 µM
  IC50: > 1000 nM
Second compound 1 µM
  IC50: > 1000 nM
Second compound 3.16 µM
  IC50: 23.8 nM
Second compound 10 µM
  IC50: < 3.16 nM
Second compound 0.0316 µM, first compound 0.00316 µM
  viability, T/C: 84.3%
Second compound 0.0316 µM, first compound 0.01 µM
  viability, T/C: 97.2%
Second compound 0.0316 µM, first compound 0.0316 µM
  viability, T/C: 75.4%
Second compound 0.0316 µM, first compound 0.1 µM
  viability, T/C: 84.7%
Second compound 0.0316 µM, first compound 0.316 µM
  viability, T/C: 89.2%
Second compound 0.0316 µM, first compound 1 µM
  viability, T/C: 75.2%
Second compound 0.1 µM, first compound 0.00316 µM
  viability, T/C: 86.1%
Second compound 0.1 µM, first compound 0.01 µM
  viability, T/C: 82.5%
Second compound 0.1 µM, first compound 0.0316 µM
  viability, T/C: 82.1%
Second compound 0.1 µM, first compound 0.1 µM
  viability, T/C: 83%
Second compound 0.1 µM, first compound 0.316 µM
  viability, T/C: 71.9%
Second compound 0.1 µM, first compound 1 µM
  viability, T/C: 69.1%
Second compound 0.316 µM, first compound 0.00316 µM
  viability, T/C: 91.8%
Second compound 0.316 µM, first compound 0.01 µM
  viability, T/C: 89.7%
Second compound 0.316 µM, first compound 0.0316 µM
  viability, T/C: 70.2%
Second compound 0.316 µM, first compound 0.1 µM
  viability, T/C: 70.1%
Second compound 0.316 µM, first compound 0.316 µM
  viability, T/C: 70.9%
Second compound 0.316 µM, first compound 1 µM
  viability, T/C: 56.1%
Second compound 1 µM, first compound 0.00316 µM
  viability, T/C: 74.3%
Second compound 1 µM, first compound 0.01 µM
  viability, T/C: 63.5%
Second compound 1 µM, first compound 0.0316 µM
  viability, T/C: 63.9%
Second compound 1 µM, first compound 0.1 µM
  viability, T/C: 64.3%
Second compound 1 µM, first compound 0.316 µM
  viability, T/C: 59.4%
Second compound 1 µM, first compound 1 µM
  viability, T/C: 49.5%
Second compound 3.16 µM, first compound 0.00316 µM
  viability, T/C: 54.1%
Second compound 3.16 µM, first compound 0.01 µM
  viability, T/C: 54%
Second compound 3.16 µM, first compound 0.0316 µM
  viability, T/C: 51.8%
Second compound 3.16 µM, first compound 0.1 µM
  viability, T/C: 42.4%
Second compound 3.16 µM, first compound 0.316 µM
  viability, T/C: 35.6%
Second compound 3.16 µM, first compound 1 µM
  viability, T/C: 32.3%
Second compound 10 µM, first compound 0.00316 µM
  viability, T/C: 44.1%
Second compound 10 µM, first compound 0.01 µM
  viability, T/C: 38.6%
Second compound 10 µM, first compound 0.0316 µM
  viability, T/C: 37.1%
Second compound 10 µM, first compound 0.1 µM
  viability, T/C: 34.2%
Second compound 10 µM, first compound 0.316 µM
  viability, T/C: 27%
Second compound 10 µM, first compound 1 µM
  viability, T/C: 20.8%

## C=CC(=O)N1CCN(c2nc(=O)n(-c3c(C)ccnc3C(C)C)c3nc(-c4c(O)cccc4F)c(F)cc23)C(C)C1 (centres undefined) + CCN1C(C(=O)NC23CCC(C(=O)O)(CC2)CC3)C(c2cccc(Cl)c2F)C2(C(=O)Nc3cc(Cl)ccc32)C12CCCCC2
Second compound 0.00949 µM
  IC50: > 10000 nM
Second compound 0.03 µM
  IC50: > 10000 nM
Second compound 0.0949 µM
  IC50: > 10000 nM
Second compound 0.3 µM
  IC50: > 10000 nM
Second compound 0.949 µM
  IC50: > 10000 nM
Second compound 3 µM
  IC50: > 10000 nM
Second compound 0.00949 µM, first compound 0.0316 µM
  viability, T/C: 102%
Second compound 0.00949 µM, first compound 0.1 µM
  viability, T/C: 101%
Second compound 0.00949 µM, first compound 0.316 µM
  viability, T/C: 123%
Second compound 0.00949 µM, first compound 1 µM
  viability, T/C: 114%
Second compound 0.00949 µM, first compound 3.16 µM
  viability, T/C: 113%
Second compound 0.00949 µM, first compound 10 µM
  viability, T/C: 70.7%
Second compound 0.03 µM, first compound 0.0316 µM
  viability, T/C: 108%
Second compound 0.03 µM, first compound 0.1 µM
  viability, T/C: 99.6%
Second compound 0.03 µM, first compound 0.316 µM
  viability, T/C: 94.5%
Second compound 0.03 µM, first compound 1 µM
  viability, T/C: 125%
Second compound 0.03 µM, first compound 3.16 µM
  viability, T/C: 114%
Second compound 0.03 µM, first compound 10 µM
  viability, T/C: 67.7%
Second compound 0.0949 µM, first compound 0.0316 µM
  viability, T/C: 118%
Second compound 0.0949 µM, first compound 0.1 µM
  viability, T/C: 111%
Second compound 0.0949 µM, first compound 0.316 µM
  viability, T/C: 113%
Second compound 0.0949 µM, first compound 1 µM
  viability, T/C: 108%
Second compound 0.0949 µM, first compound 3.16 µM
  viability, T/C: 103%
Second compound 0.0949 µM, first compound 10 µM
  viability, T/C: 86.1%
Second compound 0.3 µM, first compound 0.0316 µM
  viability, T/C: 108%
Second compound 0.3 µM, first compound 0.1 µM
  viability, T/C: 99.2%
Second compound 0.3 µM, first compound 0.316 µM
  viability, T/C: 106%
Second compound 0.3 µM, first compound 1 µM
  viability, T/C: 117%
Second compound 0.3 µM, first compound 3.16 µM
  viability, T/C: 112%
Second compound 0.3 µM, first compound 10 µM
  viability, T/C: 73.7%
Second compound 0.949 µM, first compound 0.0316 µM
  viability, T/C: 103%
Second compound 0.949 µM, first compound 0.1 µM
  viability, T/C: 101%
Second compound 0.949 µM, first compound 0.316 µM
  viability, T/C: 96.2%
Second compound 0.949 µM, first compound 1 µM
  viability, T/C: 113%
Second compound 0.949 µM, first compound 3.16 µM
  viability, T/C: 111%
Second compound 0.949 µM, first compound 10 µM
  viability, T/C: 80.9%
Second compound 3 µM, first compound 0.0316 µM
  viability, T/C: 86.8%
Second compound 3 µM, first compound 0.1 µM
  viability, T/C: 81.9%
Second compound 3 µM, first compound 0.316 µM
  viability, T/C: 91.6%
Second compound 3 µM, first compound 1 µM
  viability, T/C: 98.2%
Second compound 3 µM, first compound 3.16 µM
  viability, T/C: 89.4%
Second compound 3 µM, first compound 10 µM
  viability, T/C: 70.3%
